Test results taken from ChEMBL document CHEMBL3301555, “MMV Malaria Box screening in pLDH viability assay against Plasmodium falciparum gametocytes”.

Tested on: Plasmodium falciparum
Experiment: MMV: Measure of pLDH activity as indication of parasite viability. Gametocytogenesis of 3D7 Plasmodium falciparum strain was induced in vitro and asexual parasites were depleted with N-acetylglucosamine. Gametocytes were treated with dihydroartemisinin, epoxomicin, methylene blue, primaquine, puromycin or chloroquine in 96-well plates and the pLDH activity was evaluated using a modified Makler protocol. Mosquito infectivity was measured by the standard membrane feeding assay.
Assay type: functional
Set-up: concentration or dose not given beside the values

| SMILES | Growth Inhibition [%] |
| --- | --- |
| COc1ccc2c(c1)C1(Nc3ccccc3-c3nc4ccccc4n31)C(=O)N2 (configuration not stated) | 23.3334 |
| COc1cccc(Cn2c(Oc3ccccc3)nc3c2c(=O)n(C)c(=O)n3C)c1 | 5.4442 |
| CCOc1c(Cl)cc(CNCC(O)c2ccccc2)cc1OC (configuration not stated) | 20.5848 |
| OC(CNCC1CCCO1)Cn1c2ccc(Cl)cc2c2cc(Cl)ccc21 (configuration not stated) | 10.6906 |
| COc1ccc2nc(C)cc(Nc3ccccc3O)c2c1 | 10.6942 |
| CCn1nc(-c2ccc(C(=O)OC)cc2)nc2c(=O)n(C)c(=O)nc1-2 | 19.8788 |
| CCOc1ccccc1CN1CCc2nc3cc(C(C)(C)C)nn3c(O)c2C1 | 8.4768 |
| Cc1cc(N2CCCC2)nc(Nc2ccc(NC(=O)CCc3ccccc3)cc2)n1 | 14.278 |
| CN1CCN(c2ncnc3c2[nH]c2ccc(Cl)cc23)CC1 | 7.405 |
| CC1(c2ccccc2)Nc2ccccc2-c2nc3ccccc3n21 (configuration not stated) | 8.0798 |
| O=C1c2ccccc2-c2nnc(-c3ccc(Br)cc3)cc21 | 29.9528 |
| O=C(Nc1ccc(Br)cc1)Nc1cccc(Cl)c1 | 8.8754 |
| CN(C)CCNc1cc(-c2ccccc2)nc2ccccc12 | 2.7026 |
| CCOC(=O)C1=C(C)N=c2sc(=Cc3ccccc3O)c(=O)n2C1c1ccc(OC)c2ccccc12 (configuration not stated) | 6.5248 |
| CCOC(=O)C1=C(C)N=c2sc(=Cc3cc(Cl)ccc3O)c(=O)n2C1c1ccc(OC)cc1 (configuration not stated) | 18.9955 |
| Cc1nc2ccccc2c(O)c1CC=C(Cl)Cl | 28.4855 |
| FC(F)(F)c1cccc(Nc2nc3ccccc3nc2Nc2cccc(C(F)(F)F)c2)c1 | 23.1188 |
| COc1ccc2nc(C)cc(Nc3ccc(Cl)cc3)c2c1 | 15.7236 |
| CCC(O)c1ccc(Br)cc1NC(=O)c1cccc(Cl)c1 (configuration not stated) | 24.26 |
| COc1ccc2nc(C)cc(Nc3cccc(O)c3)c2c1.Cl | 10.892 |
| O=c1nc(C=Cc2ccc(Br)cc2)oc2ccccc12 | 11.7922 |
| COc1ccc2nc(N)nc(C)c2c1 | 7.6614 |
| CC(=O)c1ccc(NC(=O)CSc2nc(-c3ccccc3Cl)ns2)cc1 | 4.3696 |
| O=C(NC1CCCCC1)C(c1cccs1)N(CCc1ccccc1)C(=O)c1ccco1 (configuration not stated) | 7.269 |
| CCC(=O)Nc1nnc(Cc2ccc(OC)c(OC)c2)s1 | 9.8854 |
| Cc1ccnc(NC(c2cccc(OCc3ccccc3)c2)c2ccc3cccnc3c2O)c1 (configuration not stated) | -1.2034 |

| SMILES | Growth Inhibition [%] |
| --- | --- |
| Nc1ccc(-c2nc3cc(Cc4ccc5[nH]c(-c6ccc(N)cc6)nc5c4)ccc3[nH]2)cc1 | 9.5548 |
| CCCCOC(=O)c1ccc(Nc2cc(C)nc3ccc(OC)cc23)cc1 | 15.2218 |
| O=C(Nc1ccc(CN2CCOCC2)cc1)c1ccc(-c2cc(Cl)ccc2Cl)o1 | 12.3128 |
| Cc1cc(Nc2cccc(F)c2)nc(NCc2ccccc2)n1 | 7.8192 |
| O=c1cc(NC2CCN(CCCc3ccccc3)CC2)c2cc(Cl)ccc2o1 | 18.578 |
| Cc1ccc(OCCCCCCNCCO)c(C)c1 | 3.067 |
| COc1cccc(C(=O)Nc2ccc(-c3nc4ccccc4[nH]3)cc2)c1 | 15.5734 |
| COCCn1c(C)nc2ccccc2c1=O | 4.3894 |
| O=C(Nc1cccc(-c2nc3ccccc3[nH]2)c1)c1cccc(NC(=O)c2ccco2)c1 | 6.1984 |
| O=C(NC1CCN(Cc2ccccc2)CC1)c1cc(-c2cccnc2)nc2ccc(Cl)cc12 | 12.1742 |
| CCN(Cc1ccccc1)C1CCN(Cc2cc(Br)ccc2O)CC1.O=C(O)C(=O)O | 47.2545 |
| CCOc1ccc(-n2cc(-c3ccccc3)c3c(SCc4cc(C)ccc4C)ncnc32)cc1 | 2.789 |
| Cc1ccc(C)c(Cn2c(N3CCC(C(=O)NCc4cccs4)CC3)nc3ccccc32)c1 | 5.2598 |
| CC1CCN(Cc2c(O)ccc3cc(-c4nc5ccccc5s4)c(=O)oc23)CC1 | 9.8172 |
| COc1ccc(C2C(C(=O)Nc3cccc(OC)c3)c3ccccc3C(=O)N2C2CCCCC2)cc1 (configuration not stated) | -2.347 |
| CCOC(=O)c1cnc2ccc(Cl)cc2c1NCCCN(C)C | 5.776 |
| CCOc1ccccc1NC(=O)CN1CCN(C(=O)c2ccco2)CC1 | 5.6622 |
| c1ccc2c(NCCc3c[nH]c4ccccc34)c3ccccc3nc2c1 | 22.8248 |
| O=C(Nc1ccc(C23CC4CC(CC(c5ccccc5)(C4)C2)C3)cc1)c1cccs1 | 4.2535 |
| CCN(CC)CCCNc1ccnc2cc3ccccc3cc12 | 22.6902 |
| O=C1c2ccccc2C2=Nc3ccccc3SC(c3cccc(F)c3)C12 (configuration not stated) | 29.827 |
| Cc1ccccc1OCCSc1nc2ccc(NC(=O)c3ccccc3)cc2s1 | -3.751 |
| CCOC(=O)c1cnc2c(C)cccc2c1Nc1ccc(C(C)=O)cc1 | 14.9964 |
| COc1ccc(-c2nonc2NC(=O)c2cccc(Cl)c2)cc1OC | 6.9258 |
| Cc1cc(NC(=O)c2ccc(-c3ccccc3)cc2)no1 | 4.97 |
| O=C(Nc1ccc(-c2nc3cc4ccccc4cc3[nH]2)cc1)c1cccc(Br)c1 | 12.54 |

| SMILES | Growth Inhibition [%] |
| --- | --- |
| CCOc1cc2c(cc1OCC)C(c1cc(C)c(O)c(C)c1)NCC2.Cl (configuration not stated) | 25.854 |
| O=C1CC(O)(C(F)(F)C(F)(F)F)Oc2ccccc21 (configuration not stated) | 1.4958 |
| COc1cc(SC)ccc1C(=O)N1CCCC(C)C1 (configuration not stated) | 14.445 |
| Cc1ccc(C2CC(C(F)(F)F)n3nc(C(=O)N4CCN(C(c5ccccc5)c5ccccc5)CC4)cc3N2)cc1 (configuration not stated) | 4.7565 |
| Cc1ccc2nc(C)cc(Nc3cccc(C(F)(F)F)c3)c2c1.Cl | -5.193 |
| CC(C)c1ccc(CNCC(O)c2ccccc2)cc1.Cl (configuration not stated) | 37.0308 |
| CC(C)(C)c1ccc(C(=O)Nc2c3c(nn2-c2cccc(Cl)c2)CSC3)cc1 | 9.0986 |
| CCOc1cc2c(cc1OCC)C(c1cc(Cl)c(O)c(OCC)c1)NCC2 (configuration not stated) | 16.0386 |
| COc1ccc(N2CCN(C(CNC(=O)CC(C)(C)C)c3ccc4c(c3)OCO4)CC2)cc1 (configuration not stated) | 14.9208 |
| CCCCCCn1c(=N)n(CC(O)COc2cccc(C)c2)c2ccccc21.Cl (configuration not stated) | 34.1668 |
| Cc1ccc(NC(=O)Nc2cccc(Cl)c2)cc1F | 3.3088 |
| O=C(O)C(=O)O.Oc1ccc(Br)cc1CN1CCN(Cc2cccc(F)c2)CC1 | 29.456 |
| COc1ccc(-c2cc(=O)oc3c4c(ccc23)OCN(Cc2ccc(F)cc2)C4)cc1 | 25.9468 |
| CCOC(=O)C1(Cc2ccccc2)CCN(Cc2cccc(OC)c2O)CC1 | 37.59 |
| Oc1ccc(C(=C(Cl)Cl)c2ccc(O)cc2)cc1 | 9.2564 |
| CCOc1ccc2c(c1)CN(Cc1ccc(Cl)cc1)CO2 | 25.403 |
| CC(C)(C)c1ccc2c(c1)CN(Cc1ccc(Cl)cc1)CO2 | 36.3995 |
| CCCCC(O)(c1ccc(Cl)cc1)C(CN1CCOCC1)c1ccc(Cl)cc1.Cl (configuration not stated) | 3.244 |
| O=c1nc(C=Cc2ccc(Cl)cc2)oc2ccccc12 | 11.0552 |
| O=C(NCc1ccco1)C1CCN(S(=O)(=O)c2ccc(Br)cc2)CC1 | 6.982 |
| CN(C)c1ccc(N2C(N)=NC(N)=NC2(C)C)cc1 | 5.041 |
| COc1ccc(Nc2nc(NCc3ccccc3)c3ccccc3n2)cc1 | 17.5424 |
| COc1ccc(OC)c(C2C3=C(CC(C)(C)CC3=O)N(c3ccc(Cl)c(Cl)c3)C3=C2C(=O)CC(C)(C)C3)c1 | 21.894 |
| COc1ccc(C(=O)NC(c2ccccc2Cl)c2cc(Cl)c3cccnc3c2O)cc1 (configuration not stated) | 27.7302 |
| Cc1cc(=O)oc2c1ccc1oc(C(=O)c3ccccc3)c(C)c12 | 19.4 |
| COc1ccc(CN2CCN(Cc3ccccc3)CC2)c(O)c1 | 26.2585 |

| SMILES | Growth Inhibition [%] |
| --- | --- |
| COc1cc2c(cc1OC)C1=NNC(=O)C1=NC(C)(C)C2 | 35.8316 |
| COc1ccc2c(c1OC)C(=O)N1c3ccccc3N=C(c3ccc(C)cc3)CC21 (configuration not stated) | 14.488 |
| CCCCCCc1cc(O)c2c3c(c(=O)oc2c1)CCC(C)C3 (configuration not stated) | 26.585 |
| Cl.OC(CNCc1ccccc1)Cn1c2ccccc2c2ccccc21 (configuration not stated) | 33.103 |
| COc1ccc(CCNC(=O)c2cc(S(=O)(=O)N3CC(C)CC(C)C3)ccc2Sc2ccc(F)cc2)cc1OC (configuration not stated) | 10.1532 |
| CCOc1ccc(Nc2c3ccccc3nc3ccccc23)cc1.Cl | 2.291 |
| CCCCc1c(C)nc2c(OC)cccc2c1O | 10.7044 |
| OC1CCCCC1C1(NC(=S)Nc2ccccc2)CCCCC1 (configuration not stated) | -6.2185 |
| OC1=C2C(=Nc3ccccc3SC2c2ccc(Br)cc2)c2ccccc21 (configuration not stated) | 30.3526 |
| COc1ccc(C)c2sc(N(Cc3cccnc3)C(=O)c3ccc(C#N)cc3)nc12 | -12.2204 |
| Clc1ccc2c(N3CCCC3)ccnc2c1 | 18.4524 |
| CCOC(=O)C1CCN(C(=O)CN2C(=O)c3ccccc3C2c2c[nH]c3ccccc23)CC1 (configuration not stated) | 48.711 |
| CCCCCCC(O)(c1ccc(F)cc1)C(CN1CCOCC1)c1ccccc1.Cl (configuration not stated) | -0.4664 |
| COc1cc(OC)cc(N2C(=O)N(Cc3ccc(C(C)(C)C)cc3)c3ccccc3S2(=O)=O)c1 | 5.995 |
| CCOc1ccc(CCNC(=O)c2cccs2)cc1OCC | 6.4232 |
| COc1ccc(C(=O)C2CC2c2ccc(Cl)cc2)cc1 (configuration not stated) | 8.002 |
| CCCCCn1c(=N)n(CC(O)COc2cccc(C)c2)c2ccccc21.Cl (configuration not stated) | 34.3056 |
| O=c1c2c([nH]c3ccccc13)CCCC2 | 19.1396 |
| COc1ccccc1N1C(=N)SC(=Cc2ccc(OCc3ccccc3F)cc2)C1=O | 14.0558 |
| CCN1CCN(c2c(C(=O)c3ccccc3)cnc3cc(OC)c(OC)cc23)CC1 | -1.335 |
| Cc1c(C)n(CC(O)CNC2CCCCC2C)c2ccccc12 (configuration not stated) | 42.7668 |
| Cc1ccc(S(=O)(=O)c2c(COC(=O)c3cccc(C)c3)c(-c3ccccc3)nn2C)cc1 | 4.058 |
| CCOC(=O)c1c[nH]c2c(CC)cccc2c1=O | 3.164 |
| CCCCN(CCCC)S(=O)(=O)c1ccc(NC(=O)c2ccco2)cc1 | 9.666 |
